“And” between values parts separate entries of the source, which are not always exact repeats. Identical values can stand only once.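 Five compound concentrations were applied to cells in 96-well plates for 48 hours; endpoints were derived by simple linear interpolation of the resulting dose-response curve. GI50 = concentration required for 50% inhibition of growth. TGI is the concentration that stops growth completely.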 *1 amine or outer side, *2 acyl side, *3 side chain or, on linkers, in order; H or OH if unused. Where a SMILES comes first, the peptide text is derived from it. Bridges are numbered along the chain shown (N, C = ends). Roman numbers before positions name the chains, in order. [ ]: non-standard residue; d: D form. Actinocin(9to1) = Cc1c2oc3c(C)ccc(C(=O)[*:1])c3nc-2c(C(=O)[*:2])c(N)c1=O; NMeF = CN[CH](Cc1ccccc1)C(=O)O; Sar = CNCC(=O)O
Experiments:
Assay in all cases: NCI tumour cell line growth inhibition, 48 h
COLO 205 colon = tested on: COLO 205 colon
MDA-N = tested on: MDA-N
NCI-H522 lung = tested on: NCI-H522 lung
OVCAR-5 ovarian = tested on: OVCAR-5 ovarian
PC-3 prostate = tested on: PC-3 prostate
RPMI-8226 leukemia = tested on: RPMI-8226 leukemia
SF-295 CNS = tested on: SF-295 CNS
SF-539 CNS = tested on: SF-539 CNS
SK-MEL-2 melanoma = tested on: SK-MEL-2 melanoma

SMILES | TGI (COLO 205 colon) [µM] | TGI (MDA-N) [µM] | TGI (NCI-H522 lung) [µM] | TGI (OVCAR-5 ovarian) | TGI (PC-3 prostate) | TGI (RPMI-8226 leukemia) [µM] | TGI (SF-295 CNS) | TGI (SF-539 CNS) | TGI (SK-MEL-2 melanoma) | GI50 (COLO 205 colon) [µM] | GI50 (MDA-N) [µM] | GI50 (NCI-H522 lung) [µM] | GI50 (OVCAR-5 ovarian) | GI50 (PC-3 prostate) [µM] | GI50 (RPMI-8226 leukemia) | GI50 (SF-295 CNS) [µM] | GI50 (SF-539 CNS) [µM] | GI50 (SK-MEL-2 melanoma) [µM]
O=C(O)/C(=C\c1ccncc1)c1cccc2ccccc12 | > 100 | > 100 | > 100 | > 100 µM | > 100 µM | > 100 | > 100 µM | > 100 µM | > 100 µM |  |  |  |  |  |  |  |  | 
Cc1c2oc3c(C)ccc(C(=O)NC4C(=O)NC(C(C)C)C(=O)N5CCCC5C(=O)N(C)CC(=O)N(C)C(Cc5ccccc5)C(=O)OC4C)c3nc-2c(C(=O)NC2C(=O)NC(C(C)C)C(=O)N3CCCC3C(=O)N(C)CC(=O)N(C)C(Cc3ccccc3)C(=O)OC2C)c(N)c1=O (centres undefined) (I: TVP[Sar][NMeF] / II: TVP[Sar][NMeF]; ester I:1-I:C, II:1-II:C; linker I:N-II:N via Actinocin(9to1); configuration not given here) | 0.0266 | 0.0564 | 0.0201 | 2.01 µM and > 0.41 µM | 0.0325 µM and 0.142 µM | > 1 | < 0.0141 µM and 0.108 µM | < 0.01 µM and 0.0439 µM | < 0.01 µM and 0.0326 µM | 0.00372 | 0.00491 | 0.00155 | < 0.01 µM and 0.0335 µM |  |  |  |  | 
Oc1ccc(Cc2cc(Cl)cc(Cl)c2O)cc1Cl | 35 | 22.4 | 31.6 | 38.9 µM | 33.1 µM | 48.4 | 39.6 µM | 34.3 µM | 29.7 µM |  |  |  |  |  |  |  |  | 
Cc1coc2c1C(OC(=O)C(C)C)C1(C)C(C)CCC(O)C1C2=O (centres undefined) | > 100 | > 100 | > 100 | > 100 µM | > 100 µM | > 100 | > 100 µM | > 100 µM | > 100 µM |  |  |  |  |  |  |  |  | 
C[C@@H]1COCCN1c1cc(C2(O)C[C@H]3CC[C@@H](C2)O3)c2cnn(-c3ccn[nH]3)c2n1 (some centres undefined) | 2.52 |  | 1.01 |  | 24.4 µM | 3.72 | 0.308 µM | 0.0946 µM | 0.202 µM | 0.253 |  | 0.141 | 0.0977 µM | 0.277 | 0.162 µM | 0.0329 | 0.023 | 0.0304
COc1cccc2c1n([O-])c1cccc(OC)c1[n+]2=O | 28.5 |  | 28.1 | 27.3 µM | 35.3 µM | 25 | 18.5 µM | > 100 µM | > 100 µM | 12.1 |  | 5.77 | 9.71 µM | 7.76 | 4.67 µM | 3.03 | 7.85 | 17.8
CC(=C/c1ccccc1)/C=C1/NC(=S)N(/C=C2\C(=O)Oc3ccccc3C2=O)C1=O | > 100 | > 100 | > 90.5 | > 100 µM | > 100 µM | > 100 | > 100 µM | > 100 µM | > 100 µM |  |  |  |  |  |  |  |  | 
O=C(c1ccccc1)c1c(C(F)(F)F)n([O-])c2ccc(C(F)(F)F)cc2[n+]1=O | 0.879 |  | 0.971 | 0.753 µM | 0.229 µM | 0.883 | 1.11 µM | 0.745 µM | 2.96 µM | 0.384 |  | 0.306 | 0.264 µM | 0.0948 | 0.286 µM | 0.548 | 0.315 | 1.24
CC(=O)c1nc2ccccc2n1CC(=O)c1cccc(Cl)c1 | > 79.1 |  | 0.719 | > 71.4 µM | > 100 µM | 14.3 | > 23.2 µM | 2.25 µM | 98 µM | 16.1 |  | 0.0846 | 3.42 µM | 1.12 | 0.255 µM | 1.27 | 0.33 | 0.505
CC#Cc1nc(Nc2cc(C)[nH]n2)c2ccccc2n1 | 10.3 |  | 22 | 30.7 µM | 21.6 µM | 22.2 | 34.5 µM | 17.6 µM | 8.38 µM | 3.26 |  | 6.24 | 5.69 µM | 5.22 | 6.95 µM and 3.32 µM | 12.3 | 3.81 | 2.92
Cc1c([N+](=O)[O-])oc2ccc3ccccc3c12 | > 100 | > 100 | 41.9 | > 100 µM | > 100 µM | > 100 | > 100 µM | > 100 µM | > 100 µM |  |  |  |  |  |  |  |  | 
CCSc1ccc(C2C(Br)C(=O)N2c2cc(OC)c(OC)c(OC)c2)cc1 (centres undefined) | 0.823 |  | 4.19 | 15.8 µM | > 100 µM | 4.37 | > 100 µM | 0.61 µM | > 100 µM | 0.23 |  | 0.158 | 0.431 µM | 0.297 | 0.361 µM | 0.087 | 0.161 | 0.484
O=c1oc2c(C(F)(F)F)cccc2cc1-c1csc(Nc2ccc(OCCF)cc2)n1 | 0.0729 |  | 0.0766 | > 100 µM | > 100 µM | 42.7 | 12.7 µM | 0.07 µM | > 39.9 µM | 0.0268 |  | 0.0216 | 0.231 µM | 0.0446 | 0.0406 µM | 0.0286 | 0.0248 | 0.0593
CCN(Cc1c(Cl)cccc1Cl)c1ccc(CO)c(Cl)c1 | 11.7 |  | 24.9 | 0.24 µM | 23.9 µM | 17.6 | 1.37 µM | 28.6 µM | 13.4 µM | 2.41 |  | 11.1 | < 0.0284 µM | 11.3 | 1.12 µM |  | 15.1 | 0.795
C/C(=N\NC(=S)N(C)C)c1ccccn1 |  |  | 1.98 | 6.85 µM | 15.9 µM | 31.9 | 13.1 µM | 2.77 µM | 27.2 µM |  | 0.178 |  |  | 0.132 | 0.000878 µM | 0.012 | 0.0516 | 0.624
CCN(CC)c1ccc(/C=C/C=C2\NC(=O)NC2=O)cc1 | 16.2 |  | 4.11 | 98.4 µM | > 100 µM | 32.4 | > 100 µM | 8.6 µM | 53.6 µM | 3.22 |  | 0.92 | 11.1 µM | 3.75 | 2.68 µM | 1.54 | 2.33 | 3.5
O=C(CCc1ccc(O)cc1)N/N=C/c1cc(Br)ccc1O | > 100 |  | 18.1 | > 100 µM | > 100 µM | 33.3 | > 100 µM | 35.4 µM | 38.3 µM | 14 |  | 3.73 | 6.77 µM | 4.14 | 3.57 µM | 3.25 | 4.03 | 5.28

From PubChem BioAssay (NCI)
